# Assay results taken from PubChem BioAssay AID1963983 (Molecular Pharmacology Branch, DTP, NCI, 2024).
# Several values for one entry are separate records, joined by “and”; a condition that tells them apart may be missing. Identical values can stand only once.
# System: 186277-243-T-J2-PDC multi-cell spheroid viability
# Assay: Anticancer human tumor 186277-243-T-J2-PDC patient-derived colon adenocarcinoma cell line growth inhibition [PI3K]
# Details: for viability, T/C: stronger effect = lower value
# From the text: Combinatorial screen of targeted agents with the PI3K inhibitors inavolisib, alpelisib, duvelisib, and copanlisib in multi-cell type tumor spheroids
# A high-throughput screen of multi-cell type tumor spheroids was designed to identify active combinations of targeted small molecules and PI3K pathway inhibitors. Complex spheroids include a stromal component modeled by human endothelial cells (HUVEC) and fibroblasts modeled by human mesenchymal stem cells (MSCs). The concentration ranges selected for each drug and investigational agent were based upon clinically achievable concentrations if the clinical Cmax of the agent was known.
# Compounds. The drugs and investigational agents: inavolisib (NSC800729), alpelisib (NSC765974), duvelisib (NSC772469), copanlisib (NSC816437), ipatasertib (NSC767898), afuresertib (NSC778305), talazoparib (NSC767125), sapanisertib (NSC764658), selumetinib (NSC741078), tovorafenib (DAY101, NSC766906), vemurafenib (NSC761431), ravoxertinib (NSC781343), sotorasib (NSC818433), MRTX1133 (NSC 836407), abemaciclib (NSC 768073), palbociclib (NSC758247), venetoclax (NSC 766270), SY5609 (NSC837396), enzalutamide (NSC755605), and darolutamide (NSC825331), were obtained from the National Cancer Institute (NCI) Developmental Therapeutics Program Chemical Repository. The FDA-approved anticancer drug set is available from the NCI Developmental Therapeutics Program. […] The stock solutions were prepared in dimethyl sulfoxide (DMSO, Sigma-Aldrich, St. Louis, MO, cat. D2650) at 800-fold the tested concentration and stored at -70 degrees C prior to their use. All drugs and investigational agents were tested over a range starting from a high concentration at or near the clinical Cmax and decreasing in half-log increments. If the clinical Cmax for an agent had not been determined, the highest concentration tested was 10 microM.
# Cell Culture. All cells were maintained in an incubator at 37 degrees C and 5% CO2 with 95% humidity. The PDC lines were cultured according to standard operating procedures established by the NCI PDMR (https://pdmr.cancer.gov/sops/default.htm). All PDCs were thawed and cultured in Matrigel-coated flasks prepared with a working solution of 1X Ham's F-12 nutrient mix, without supplementation (Invitrogen, Waltham, MA, cat. 11765054), 100 U/mL penicillin-streptomycin (Invitrogen, cat. 15140122), and 2.5% Matrigel (Corning Inc., Corning, NY, cat. 354248) for the first three passages. The 354836-022-R-J1-PDC, 475296-252-R-J1-PDC, and 997726-040-R-J2-PDC lines were cultured in 6A media, which includes advanced DMEM/F-12 (Thermo Fisher Scientific, cat. 12634028), 10 mM HEPES (Thermo Fisher Scientific, cat. 15630080), 1X GlutaMAX supplement (Thermo Fisher Scientific, cat. 35050061), 0.1 mg/mL primocin (InvivoGen, San Diego, CA, cat. ant-pm-2), 10% defined fetal bovine serum, heat inactivated (HyClone Laboratories Inc., Logan, UT, cat. SH30070.03HI), 50% L-WRN conditioned media (ATCC, cat. CRL-3276), 1.25 mM N-Acetyl-L-cysteine (Sigma-Aldrich, cat. A9165), 10 mM nicotinamide (Sigma-Aldrich, cat. N0636), 1X B-27 supplement (Thermo Fisher Scientific, cat. 17504044), 1X N-2 supplement (Thermo Fisher Scientific, cat. 17502048), and 10 microM Y-27632 dihydrochloride (Tocris Bioscience, Bristol, United Kingdom, cat. 1254). The 624824-186-R-J2-PDC line was cultured in 6C/Colon 1B media, which includes all 6A media components plus 50 ng/mL human EGF recombinant protein (Thermo Fisher Scientific, cat. PHG0311). […]
# [1] = compound alone, run of 05/09/2023
# 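Note: spheroids exposed to compounds for seven days before viability reading.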
# 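Throughout, for viability, T/C: 100% = DMSO vehicle control viability.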
SMILES,IC50 (curve of compound),IC50 [1],"viability, T/C (compound 0.0316 µM)","viability, T/C (compound 0.1 µM)","viability, T/C (compound 0.316 µM)","viability, T/C (compound 1 µM)","viability, T/C (compound 3.16 µM)","viability, T/C (compound 10 µM)","viability, T/C (compound 0.000316 µM)","viability, T/C (compound 0.001 µM)","viability, T/C (compound 0.00316 µM)","viability, T/C (compound 0.01 µM)","viability, T/C (compound 0.00949 µM)","viability, T/C (compound 0.03 µM)","viability, T/C (compound 0.0949 µM)","viability, T/C (compound 0.3 µM)","viability, T/C (compound 0.949 µM)","viability, T/C (compound 3 µM)"
CC(C)n1nc(-c2ccc3oc(N)nc3c2)c2c(N)ncnc21,63.7 nM [middle of 4 runs],–,78.8% [middle of 4 runs],29.6% and 31.3% (2×) and 27.9%,–,–,–,–,98% [middle of 4 runs],96.1% [middle of 4 runs],99.7% [middle of 4 runs],–,–,–,–,–,–,–
CC(Cn1ccc(-c2ccc(C#N)c(Cl)c2)n1)NC(=O)c1cc(C(C)O)[nH]n1 (configuration not stated),> 10 µM,–,95.5% [middle of 4 runs],99% [middle of 4 runs],101% [middle of 4 runs],102% (2×) and 82% and 108%,96.6% [middle of 4 runs],97.3% [middle of 4 runs],–,–,–,–,–,–,–,–,–,–
CC(Nc1ccc2c(c1)OCCn1cc(N3C(=O)OCC3C(F)F)nc1-2)C(N)=O (configuration not stated),–,–,–,98% [middle of 8 runs],73.4% [middle of 8 runs],50.1% [middle of 8 runs],–,–,–,–,99.1% [middle of 8 runs],100% [middle of 8 runs],–,–,–,–,–,–
CC(Nc1ncnc2nc[nH]c12)c1cc2cccc(Cl)c2c(=O)n1-c1ccccc1 (configuration not stated),–,> 10 µM,97.5% [middle of 8 runs],102% [middle of 8 runs],101% [middle of 8 runs],101% [middle of 8 runs],98.6% [middle of 8 runs],99.5% [middle of 8 runs],–,–,–,–,–,–,–,–,–,–
CC1(C)CCC(CN2CCN(c3ccc(C(=O)NS(=O)(=O)c4ccc(NCC5CCOCC5)c([N+](=O)[O-])c4)c(Oc4cnc5[nH]ccc5c4)c3)CC2)=C(c2ccc(Cl)cc2)C1,–,–,98% [middle of 4 runs],105% [middle of 4 runs],100% [middle of 4 runs],97.9% [middle of 4 runs],–,–,–,–,–,–,–,–,–,–,–,–
CCCS(=O)(=O)Nc1ccc(F)c(C(=O)c2c[nH]c3ncc(-c4ccc(Cl)cc4)cc23)c1F,5.39 µM [middle of 4 runs],–,94.8% [middle of 4 runs],89.2% [middle of 4 runs],86.2% [middle of 4 runs],86.7% [middle of 4 runs],84.1% [middle of 4 runs],6.39% [middle of 4 runs],–,–,–,–,–,–,–,–,–,–
CNC(=O)c1ccc(N2C(=S)N(c3ccc(C#N)c(C(F)(F)F)c3)C(=O)C2(C)C)cc1F,> 10 µM,–,100% [middle of 4 runs],93.1% [middle of 4 runs],100% [middle of 4 runs],93% [middle of 4 runs],101% and 104% (2×) and 94.4%,104% [middle of 4 runs],–,–,–,–,–,–,–,–,–,–
C[C@@H](NC(=O)c1ncnc(N)c1Cl)c1ncc(C(=O)Nc2cc(C(F)(F)F)c(Cl)cn2)s1,> 10 µM,–,95.7% [middle of 4 runs],92.9% [middle of 4 runs],92.3% [middle of 4 runs],99.5% [middle of 4 runs],105% [middle of 4 runs],79.9% [middle of 4 runs],–,–,–,–,–,–,–,–,–,–
Cn1cnc2c(F)c(Nc3ccc(Br)cc3Cl)c(C(=O)NOCCO)cc21,193 nM [middle of 4 runs],–,–,–,–,–,–,–,–,–,–,–,97.9% [middle of 4 runs],87.4% [middle of 4 runs],61.9% [middle of 4 runs],38% and 43.4% (2×) and 37.6%,22.7% [middle of 4 runs],9.95% [middle of 4 runs]
Cn1ncc(Cl)c1-c1cc(C(=O)NC(CN)Cc2cccc(F)c2)sc1Cl (configuration not stated),1.17 µM [middle of 4 runs],–,89.1% [middle of 4 runs],85% [middle of 4 runs],60.5% [middle of 4 runs],45.4% [middle of 4 runs],46.1% [middle of 4 runs],19.8% [middle of 4 runs],–,–,–,–,–,–,–,–,–,–
Cn1nccc1Nc1nccc(-c2ccn(C(CO)c3ccc(Cl)c(F)c3)c(=O)c2)n1 (configuration not stated),2.35 µM [middle of 4 runs],–,96.2% [middle of 4 runs],102% and 103% (2×) and 105%,99.2% [middle of 4 runs],81% [middle of 4 runs],37.2% [middle of 4 runs],26.7% [middle of 4 runs],–,–,–,–,–,–,–,–,–,–
Cn1ncnc1[C@H]1c2n[nH]c(=O)c3cc(F)cc(c23)N[C@@H]1c1ccc(F)cc1,> 0.1 µM,–,–,93.6% [middle of 4 runs],–,–,–,–,97.7% [middle of 4 runs],94.7% [middle of 4 runs],97.8% [middle of 4 runs],93% [middle of 4 runs],–,–,–,–,–,–

# The next lines start with results.
IC50 (curve of compound),IC50 [1],SMILES,"viability, T/C (compound 0.0316 µM)","viability, T/C (compound 0.1 µM)","viability, T/C (compound 0.316 µM)","viability, T/C (compound 1 µM)","viability, T/C (compound 3.16 µM)","viability, T/C (compound 10 µM)","viability, T/C (compound 0.000316 µM)","viability, T/C (compound 0.001 µM)","viability, T/C (compound 0.00316 µM)","viability, T/C (compound 0.01 µM)","viability, T/C (compound 0.00949 µM)","viability, T/C (compound 0.03 µM)","viability, T/C (compound 0.0949 µM)","viability, T/C (compound 0.3 µM)","viability, T/C (compound 0.949 µM)","viability, T/C (compound 3 µM)"
> 10 µM,–,C=CC(=O)N1CCN(c2nc(=O)n(-c3c(C)ccnc3C(C)C)c3nc(-c4c(O)cccc4F)c(F)cc23)C(C)C1 (configuration not stated),98.1% [middle of 4 runs],92.8% [middle of 4 runs],98% [middle of 4 runs],102% [middle of 4 runs],108% [middle of 4 runs],90.6% [middle of 4 runs],–,–,–,–,–,–,–,–,–,–
> 0.1 µM,–,CC(=O)c1c(C)c2cnc(Nc3ccc(N4CCNCC4)cn3)nc2n(C2CCCC2)c1=O,–,–,–,–,–,–,97.1% [middle of 4 runs],91.1% [middle of 4 runs],91.5% and 103% and 102% (2×),105% [middle of 4 runs],–,–,–,–,–,–
1.99 µM [middle of 4 runs],–,CC(C)NCC(C(=O)N1CCN(c2ncnc3c2C(C)CC3O)CC1)c1ccc(Cl)cc1 (configuration not stated),93.8% [middle of 4 runs],88.2% [middle of 4 runs],77.6% [middle of 4 runs],55.6% [middle of 4 runs],45.9% [middle of 4 runs],28.2% (2×) and 31.3% and 28.7%,–,–,–,–,–,–,–,–,–,–
3.64 µM [middle of 4 runs],–,CC1(C)CCC(Nc2ncc(C(F)(F)F)c(-c3c[nH]c4c(P(C)(C)=O)c(C#N)ccc34)n2)CN1 (configuration not stated),75.1% [middle of 4 runs],55.2% [middle of 4 runs],50.5% [middle of 4 runs],59.2% [middle of 4 runs],62.6% [middle of 4 runs],0.77% [middle of 4 runs],–,–,–,–,–,–,–,–,–,–
> 1 µM,–,CCN1CCN(Cc2ccc(Nc3ncc(F)c(-c4cc(F)c5nc(C)n(C(C)C)c5c4)n3)nc2)CC1,106% [middle of 4 runs],130% [middle of 4 runs],146% and 156% and 145% (2×),146% [middle of 4 runs],–,–,–,–,102% [middle of 4 runs],101% [middle of 4 runs],–,–,–,–,–,–
–,51.4 nM [middle of 8 runs],COc1c(OCCCN2CCOCC2)ccc2c3n(c(=NC(=O)c4cnc(N)nc4)nc12)CCN3,73.4% [middle of 8 runs],16.7% [middle of 8 runs],6.29% [middle of 8 runs],2.87% [middle of 8 runs],–,–,–,–,98.7% [middle of 8 runs],97.8% [middle of 8 runs],–,–,–,–,–,–
